Publication PMC7504721, “Targeting the Initiator Protease of the Classical Pathway of Complement Using Fragment-Based Drug Discovery” (Molecules, 2020)

Target: T1, full-length C1r (Homo sapiens, UniProt P00736)
T1 construct: purchased Complement Technology (CompTech)
T1 sequence (P00736 18-463 limits assumed): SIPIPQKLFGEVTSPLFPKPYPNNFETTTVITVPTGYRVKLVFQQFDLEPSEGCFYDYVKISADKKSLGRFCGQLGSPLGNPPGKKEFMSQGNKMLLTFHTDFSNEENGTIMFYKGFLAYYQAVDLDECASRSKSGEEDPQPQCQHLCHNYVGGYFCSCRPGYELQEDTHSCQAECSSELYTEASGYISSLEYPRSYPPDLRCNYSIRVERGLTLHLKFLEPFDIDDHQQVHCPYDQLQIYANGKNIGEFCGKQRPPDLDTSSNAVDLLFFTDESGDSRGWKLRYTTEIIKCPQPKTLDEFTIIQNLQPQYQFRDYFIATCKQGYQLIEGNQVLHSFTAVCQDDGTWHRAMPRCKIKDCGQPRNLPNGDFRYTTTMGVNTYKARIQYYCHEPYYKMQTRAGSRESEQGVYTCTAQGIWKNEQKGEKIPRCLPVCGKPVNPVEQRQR
T1 sequence (P00736 464-705 limits assumed): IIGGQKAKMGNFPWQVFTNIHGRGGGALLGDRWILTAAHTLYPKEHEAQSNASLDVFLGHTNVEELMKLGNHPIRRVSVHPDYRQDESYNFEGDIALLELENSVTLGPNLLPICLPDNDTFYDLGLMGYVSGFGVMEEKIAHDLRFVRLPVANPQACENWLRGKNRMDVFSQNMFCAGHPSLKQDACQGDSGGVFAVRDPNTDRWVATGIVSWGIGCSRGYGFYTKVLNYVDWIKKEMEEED
Experiment: SPR domain mapping, full-length C1r surface
Format: binding
Settings: duplicate
Source text: Figure 5 Selectivity and mechanistic analysis of CMP-1611 and CMP-1696. (A) Chemical structure of CMP-1611. (B) Chemical structure of CMP-1696. (C) Dose-dependent inhibition by CMP-1611 and CMP-1696 in a classical pathway-specific ELISA. Data were fit with GraphPad Prism using non-linear regression with a log(inhibitor) vs. response model. […] The CMP-778 inhibitory response could not be fit to a dose-response inhibition model. (D) Complement pathway selectivity of CMP-1611 and CMP-1696. Compounds were assessed for their ability to inhibit activation of complement via the lectin and alternative pathways using single doses of 500 μM compound in triplicate. To ensure only lectin pathway activation, 2% (v/v) C1q-depleted serum (CompTech) was used and mannan was used as the activator. To match serum sources and amounts for this assay, the classical pathway assays were repeated here using serum from CompTech at 2% (v/v) final concentration. Alternative pathway activation assays were performed using 20% (v/v) serum (CompTech), alternative pathway buffers, and C3b detection (see Methods and Materials for details). […] We then injected each compound simultaneously over the three surfaces at 500 μM and measured binding responses. […] All sensorgrams were reference and blank subtracted and analyzed using T200 Evaluation Software (GE Healthcare, Chicago, IL, USA).

SMILES | relative SPR binding response, full-length C1r (500 µM compound) | relative SPR binding response, full-length C1r (10 µM Futhan)
COCc1nc(-c2ccc(OC3CNC3)cc2)no1 [CMP-1696] | high binding | –
N=C(N)c1ccc2cc(OC(=O)c3ccc(N=C(N)N)cc3)ccc2c1 [Futhan, reference compound] | – | bound C1r and C1r-CCP2-SP similarly
